Data: ChEMBL document CHEMBL4229445, “Activity of steroid 4 and derivatives 4a-4f as inhibitors of the enzyme 5α-reductase 1” (Bioorg Med Chem, 2018)
pIC50: −log10 of the molar value. The source made the active and inactive calls. The rule behind the calls is not given here.

How the values were obtained:
[1] = molecular target: T1, 3-oxo-5-alpha-steroid 4-dehydrogenase 1 (Rattus norvegicus, UniProt P24008); assay: Inhibition of rat liver microsomes 5alpha-reductase1 using [1,2,6,7-3H]T as substrate measured after 60 mins by chromatographic method; conditions: for pIC50: read-out: IC50
T1 sequence (P24008 whole entry): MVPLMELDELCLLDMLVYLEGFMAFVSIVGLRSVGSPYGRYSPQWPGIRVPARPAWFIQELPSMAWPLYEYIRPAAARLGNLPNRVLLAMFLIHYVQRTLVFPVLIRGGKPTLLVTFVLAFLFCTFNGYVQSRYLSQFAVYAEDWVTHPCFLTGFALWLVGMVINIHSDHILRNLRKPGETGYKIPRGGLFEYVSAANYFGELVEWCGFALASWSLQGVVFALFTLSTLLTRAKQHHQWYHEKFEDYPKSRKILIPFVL

[2] = Stability of the compound in water; format: physicochemical; conditions: buffer
Syrian golden hamster [3] = assay: Inhibition of testosterone-induced flank organ enlargement in golden hamster assessed as reduction in diameter of pigmented spot at 2 mg/kg, sc administered daily for 6 days measured post last dose by calliper method; format: functional, organism-based; conditions: Mesocricetus auratus
[4] = Drug metabolism in golden hamster plasma assessed as esterase-mediated 21(2-Oxo-ethyl-benzimidazol)-3-ceto, pregnen-16,17-diene formation by measuring retardation factor at 4 mg/kg, sc measured after 30 mins in presence of testosterone by TLC method; format: ADME, organism-based, Mesocricetus auratus; conditions: in vivo, 0.5 h
Syrian golden hamster [5] = assay: Inhibition of testosterone-induced increase in prostate weight in golden hamster at 2 mg/kg, sc administered daily for 6 days measured post last dose; format: functional, organism-based; conditions: Mesocricetus auratus
[6] = molecular target: T2, 3-oxo-5-alpha-steroid 4-dehydrogenase 2 (Homo sapiens) (UniProt P31213); assay: Inhibition of 5alpha-reductase2 (unknown origin)
T2 sequence (whole entry): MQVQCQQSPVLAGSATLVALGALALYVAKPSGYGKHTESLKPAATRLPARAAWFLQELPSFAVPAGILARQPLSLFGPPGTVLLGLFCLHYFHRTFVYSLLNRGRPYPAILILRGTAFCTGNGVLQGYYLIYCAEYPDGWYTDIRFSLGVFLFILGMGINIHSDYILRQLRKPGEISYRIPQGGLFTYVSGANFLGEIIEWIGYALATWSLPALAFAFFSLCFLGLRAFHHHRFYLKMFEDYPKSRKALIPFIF

Syrian golden hamster [7] = assay: Inhibition of testosterone-induced increase in seminal vesicle weight in golden hamster at 2 mg/kg, sc administered daily for 6 days measured post last dose; format: functional, organism-based; conditions: Mesocricetus auratus
Syrian golden hamster [8] = assay: Inhibition of testosterone-induced flank organ enlargement in golden hamster assessed as diameter of pigmented spot at 2 mg/kg, sc administered daily for 6 days measured post last dose by calliper method; format: functional, Mesocricetus auratus
Syrian golden hamster [9] = assay: Inhibition of testosterone-induced increase in seminal vesicle weight in golden hamster at 1 mg/kg, sc administered daily for 6 days measured post last dose; format: functional, organism-based; conditions: Mesocricetus auratus
Syrian golden hamster [10] = assay: Inhibition of testosterone-induced flank organ enlargement in golden hamster assessed as reduction in diameter of pigmented spot at 1 mg/kg, sc administered daily for 6 days measured post last dose by calliper method; format: functional, organism-based; conditions: Mesocricetus auratus
Syrian golden hamster [11] = assay: Inhibition of testosterone-induced increase in prostate weight in golden hamster at 1 mg/kg, sc administered daily for 6 days measured post last dose; format: functional, organism-based; conditions: Mesocricetus auratus
[12] = Drug metabolism in golden hamster plasma assessed as esterase-mediated 21(2-Oxo-ethyl-benzimidazol)-3-ceto, pregnen-16,17-diene formation at 4 mg/kg, sc measured after 60 to 120 mins in presence of testosterone by TLC method; format: ADME, organism-based, Mesocricetus auratus; conditions: in vivo

With `C[C@]12CC[C@H](OC(=O)c3ccc(Cl)cc3)CC1=CC[C@@H]1[C@@H]2CC[C@]2(C)C(n3cnc4ccccc43)=C(C=O)C[C@@H]12` the pIC50 [1] was 4.08, the Stability [2] was “Unstable” and the inhibition (Syrian golden hamster [3]) was “Active”. The Rf [4] was 0.42, the inhibition (Syrian golden hamster [5]) was “Active” and the inhibition [6] was “inactive”. For the same compound, the inhibition (Syrian golden hamster [7]) was “Active”.
With `C[C@]12CC[C@H](OC(=O)c3ccc(F)cc3)CC1=CC[C@@H]1[C@@H]2CC[C@]2(C)C(n3cnc4ccccc43)=C(C=O)C[C@@H]12` the pIC50 [1] was 4.40, the Stability [2] was “Unstable” and the Activity (Syrian golden hamster [8]) was 1.7 mm. The Rf [4] was 0.42, the inhibition (Syrian golden hamster [5]) was “Active” and the inhibition [6] was “inactive”. The inhibition (Syrian golden hamster [7]) was “Active”.
For `CC(C)(C)NC(=O)[C@H]1CC[C@H]2[C@@H]3CC[C@H]4NC(=O)C=C[C@]4(C)[C@H]3CC[C@]12C`, the inhibition (Syrian golden hamster [9]) was “Active”, the inhibition (Syrian golden hamster [10]) was “Active” and the inhibition (Syrian golden hamster [11]) was “Active”.
With `Cc1ccc(C(=O)O[C@H]2CC[C@@]3(C)C(=CC[C@@H]4[C@@H]3CC[C@]3(C)C(n5cnc6ccccc65)=C(C=O)C[C@@H]43)C2)cc1` the Drug metabolism [12] was “Metabolite_Detected”, the IC50 [1] was “Not Active” and the Stability [2] was “Stable”. The inhibition (Syrian golden hamster [3]) was “Active”, the inhibition (Syrian golden hamster [5]) was “Active” and the inhibition [6] was “inactive”. For the same compound, the inhibition (Syrian golden hamster [7]) was “Active”.
In the case of `C[C@]12CC[C@H](OC(=O)c3ccc(Br)cc3)CC1=CC[C@@H]1[C@@H]2CC[C@]2(C)C(n3cnc4ccccc43)=C(C=O)C[C@@H]12`, the Drug metabolism [12] was “Metabolite_Detected”, the IC50 [1] was “Not Active” and the Stability [2] was “Stable”. For the same compound, the inhibition (Syrian golden hamster [3]) was “Active”, the Rf [4] was 0.42 and the inhibition (Syrian golden hamster [5]) was “Active”. For the same compound, the inhibition [6] was “inactive” and the inhibition (Syrian golden hamster [7]) was “Active”.
In the case of `C[C@]12CC[C@H](OC(=O)c3ccccc3)CC1=CC[C@@H]1[C@@H]2CC[C@]2(C)C(n3cnc4ccccc43)=C(C=O)C[C@@H]12`, the Drug metabolism [12] was “Metabolite_Detected”, the IC50 [1] was “Not Active” and the Stability [2] was “Stable”. The inhibition (Syrian golden hamster [3]) was “Active”, the inhibition (Syrian golden hamster [5]) was “Active” and the inhibition [6] was “inactive”. The inhibition (Syrian golden hamster [7]) was “Active”.
In the case of `C[C@]12CC[C@H](O)CC1=CC[C@@H]1[C@@H]2CC[C@]2(C)C(n3cnc4ccccc43)=C(C=O)C[C@@H]12`, the pIC50 [1] was 6.54, the inhibition (Syrian golden hamster [3]) was “Active” and the inhibition (Syrian golden hamster [5]) was “Active”. The inhibition [6] was “inactive” and the inhibition (Syrian golden hamster [7]) was “Active”.
For `C[C@]12CC[C@H](OC(=O)c3ccc(I)cc3)CC1=CC[C@@H]1[C@@H]2CC[C@]2(C)C(n3cnc4ccccc43)=C(C=O)C[C@@H]12`, the IC50 [1] was “Not Active”, the Stability [2] was “Stable” and the inhibition (Syrian golden hamster [3]) was “Active”. The Rf [4] was 0.42, the inhibition (Syrian golden hamster [5]) was “Active” and the inhibition [6] was “inactive”. The inhibition (Syrian golden hamster [7]) was “Active”.
